Experimental data as given in ChEMBL document CHEMBL1201862, “PubChem BioAssay data set” (2004).
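Growth conditions: 96-well plates. Treatment: test compound, 48 hours, 5 concentrations. Analysis: linear interpolation between bracketing concentrations; unreached endpoints set to highest concentration. GI50 marks 50% less growth.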 Calls of active or inactive are those of the source. No stated cut-off is given here; in the data, active = GI50 up to about 1.1 µM and inactive = higher.

Experiments:
Test in all cases: inhibition of tumour cell growth, NCI panel, 48 h
786-0 = test system: 786-0
RXF 393 = test system: RXF 393
HOP-92 = test system: HOP-92
NCI/ADR-RES = test system: NCI/ADR-RES
OVCAR-3 = test system: OVCAR-3
U-251 = test system: U-251
Malme-3M = test system: Malme-3M
HL-60 = test system: HL-60
MDA-MB-231 = test system: MDA-MB-231
PC-3 = test system: PC-3
HOP-62 = test system: HOP-62
HCT-15 = test system: HCT-15
COLO 205 = test system: COLO 205
MOLT-4 = test system: MOLT-4
SK-MEL-5 = test system: SK-MEL-5
SNB-19 = test system: SNB-19
SW-620 = test system: SW-620
T47D = test system: T47D
M14 = test system: M14
SK-MEL-2 = test system: SK-MEL-2

CCOC(=O)c1cn2c(ccc3sc4ccccc4c(=O)c32)n1
GI50 (786-0): > 100 µM (inactive)
GI50 (RXF 393): > 100 µM (inactive)
GI50 (HOP-92): 87.5 µM (inactive)
GI50 (NCI/ADR-RES): > 100 µM (inactive)
GI50 (OVCAR-3): > 100 µM (inactive)
GI50 (U-251): > 100 µM (inactive)
GI50 (Malme-3M): > 100 µM (inactive)
GI50 (HL-60): > 100 µM (inactive)
GI50 (MDA-MB-231): > 100 µM (inactive)
GI50 (PC-3): > 100 µM (inactive)
GI50 (HOP-62): > 100 µM (inactive)
GI50 (HCT-15): > 100 µM
GI50 (COLO 205): > 100 µM (inactive)
GI50 (MOLT-4): > 100 µM (inactive)
GI50 (SK-MEL-5): > 100 µM (inactive)
GI50 (SNB-19): > 100 µM (inactive)
GI50 (SW-620): > 100 µM (inactive)

Cc1cccc(/N=N/C(=O)NNc2cccc(C)c2C)c1C
GI50 (786-0): 35.2 µM (inactive)
GI50 (T47D): 27.2 µM (inactive)
GI50 (OVCAR-3): 45.4 µM (inactive)
GI50 (U-251): 35.8 µM (inactive)
GI50 (Malme-3M): 21.7 µM (inactive)
GI50 (HL-60): 24.5 µM (inactive)
GI50 (MDA-MB-231): 47.5 µM (inactive)
GI50 (PC-3): 31.5 µM (inactive)
GI50 (HOP-62): 20.7 µM (inactive)
GI50 (HCT-15): 38.5 µM
GI50 (MOLT-4): > 10 µM (inactive)
GI50 (M14): 41.8 µM (inactive)
GI50 (SK-MEL-5): 28.6 µM (inactive)
GI50 (SK-MEL-2): 21.9 µM (inactive)
GI50 (SNB-19): 45.8 µM (inactive)
GI50 (SW-620): 34 µM (inactive)

NNC(=O)C1CCC(=O)N1S(=O)(=O)c1ccccc1 (stereo not given)
GI50 (786-0): > 100 µM (inactive)
GI50 (RXF 393): > 100 µM (inactive)
GI50 (HOP-92): > 100 µM (inactive)
GI50 (OVCAR-3): > 100 µM (inactive)
GI50 (U-251): > 100 µM (inactive)
GI50 (Malme-3M): > 100 µM (inactive)
GI50 (HL-60): > 100 µM (inactive)
GI50 (HOP-62): > 100 µM (inactive)
GI50 (HCT-15): > 100 µM
GI50 (COLO 205): > 100 µM (inactive)
GI50 (MOLT-4): > 100 µM (inactive)
GI50 (M14): > 100 µM (inactive)
GI50 (SK-MEL-5): > 100 µM (inactive)
GI50 (SK-MEL-2): > 100 µM (inactive)
GI50 (SNB-19): > 100 µM (inactive)
GI50 (SW-620): > 100 µM (inactive)

O=[N+]([O-])/C(C(Cl)=C(Cl)Cl)=C(\SCc1ccccc1)N1CCCCC1
GI50 (786-0): 15.9 µM (inactive)
GI50 (RXF 393): 19.7 µM (inactive)
GI50 (T47D): 8.43 µM (inactive)
GI50 (HOP-92): 0.0879 µM (active)
GI50 (OVCAR-3): 14.1 µM (inactive)
GI50 (U-251): 43.8 µM (inactive)
GI50 (Malme-3M): 12.2 µM (inactive)
GI50 (HL-60): 9.73 µM (inactive)
GI50 (MDA-MB-231): 13.3 µM (inactive)
GI50 (PC-3): 20 µM (inactive)
GI50 (HOP-62): 38.4 µM (inactive)
GI50 (HCT-15): 19.7 µM
GI50 (COLO 205): 16.4 µM (inactive)
GI50 (MOLT-4): 10.7 µM (inactive)
GI50 (M14): 19.3 µM (inactive)
GI50 (SK-MEL-5): 15.8 µM (inactive)
GI50 (SK-MEL-2): 21.5 µM (inactive)
GI50 (SNB-19): 56.2 µM (inactive)

CC1(Cl)C(=O)NC(=O)N(C2CC(N=[N+]=[N-])C(CO)O2)C1N=[N+]=[N-] (stereo not given)
GI50 (786-0): > 100 µM (inactive)
GI50 (RXF 393): > 100 µM (inactive)
GI50 (HOP-92): > 100 µM (inactive)
GI50 (OVCAR-3): > 100 µM (inactive)
GI50 (U-251): > 100 µM (inactive)
GI50 (Malme-3M): > 100 µM (inactive)
GI50 (HL-60): > 100 µM (inactive)
GI50 (HOP-62): > 100 µM (inactive)
GI50 (HCT-15): > 100 µM
GI50 (COLO 205): > 100 µM (inactive)
GI50 (MOLT-4): > 100 µM (inactive)
GI50 (M14): > 100 µM (inactive)
GI50 (SK-MEL-5): > 100 µM (inactive)
GI50 (SK-MEL-2): > 100 µM (inactive)
GI50 (SNB-19): > 100 µM (inactive)
GI50 (SW-620): > 100 µM (inactive)

Brc1ccc(C2=NCSC(c3ccc(Br)cc3)=N2)cc1
GI50 (786-0): 10.7 µM (inactive)
GI50 (RXF 393): 8.53 µM (inactive)
GI50 (HOP-92): 37.7 µM (inactive)
GI50 (NCI/ADR-RES): 30.5 µM (inactive)
GI50 (U-251): 16.7 µM (inactive)
GI50 (Malme-3M): 35.2 µM (inactive)
GI50 (HL-60): 11 µM (inactive)
GI50 (MDA-MB-231): 68.9 µM (inactive)
GI50 (PC-3): 21.2 µM (inactive)
GI50 (HOP-62): 39.1 µM (inactive)
GI50 (HCT-15): 28.2 µM
GI50 (COLO 205): 59.7 µM (inactive)
GI50 (MOLT-4): 16.1 µM (inactive)
GI50 (M14): 30.5 µM (inactive)
GI50 (SK-MEL-5): 25.2 µM (inactive)
GI50 (SK-MEL-2): 16.6 µM (inactive)
GI50 (SNB-19): 31.8 µM (inactive)
GI50 (SW-620): 12.1 µM (inactive)

CSC1=C(C#N)C(=O)N(c2ccc(C)cc2)C(=S)C1C#N (stereo not given)
GI50 (786-0): > 100 µM (inactive)
GI50 (RXF 393): > 100 µM (inactive)
GI50 (HOP-92): 33.4 µM (inactive)
GI50 (NCI/ADR-RES): > 100 µM (inactive)
GI50 (U-251): > 100 µM (inactive)
GI50 (Malme-3M): > 100 µM (inactive)
GI50 (HL-60): 63.8 µM (inactive)
GI50 (MDA-MB-231): > 100 µM (inactive)
GI50 (PC-3): > 100 µM (inactive)
GI50 (HOP-62): > 100 µM (inactive)
GI50 (HCT-15): > 100 µM
GI50 (COLO 205): > 100 µM (inactive)
GI50 (MOLT-4): > 100 µM (inactive)
GI50 (M14): > 100 µM (inactive)
GI50 (SK-MEL-5): > 100 µM (inactive)
GI50 (SK-MEL-2): > 100 µM (inactive)
GI50 (SNB-19): > 100 µM (inactive)
GI50 (SW-620): > 100 µM (inactive)

Cc1c(NC(=O)CCCl)c(=O)oc2c(C)c3occc(=O)c3cc12
GI50 (786-0): > 100 µM (inactive)
GI50 (RXF 393): 33.5 µM (inactive)
GI50 (T47D): 77.4 µM (inactive)
GI50 (HOP-92): 28.9 µM (inactive)
GI50 (NCI/ADR-RES): > 100 µM (inactive)
GI50 (U-251): 67.6 µM (inactive)
GI50 (Malme-3M): 23.5 µM (inactive)
GI50 (HL-60): 57.7 µM (inactive)
GI50 (HOP-62): > 100 µM (inactive)
GI50 (HCT-15): 62.4 µM
GI50 (COLO 205): > 100 µM (inactive)
GI50 (MOLT-4): 76.9 µM (inactive)
GI50 (M14): 50.8 µM (inactive)
GI50 (SK-MEL-5): 36.8 µM (inactive)
GI50 (SNB-19): 75.5 µM (inactive)
GI50 (SW-620): 87.7 µM (inactive)
